Drawing on US7030134B2, “Pyrazolopyridinyl pyridine and pyrimidine therapeutic compounds” (SmithKline Beecham Corporation, priority 2001, dated 2006), this text covers IC50 for 23 compounds.

pIC50: −log10 of the molar value. Counter-ions that a name gives are not always drawn. Some results are limits rather than exact numbers.

The subject of one experiment is HSV-1. The experiment is described as follows: HSV-1 replication in infected Vero 76 cells, DNA hybridization capture assay. In kind it is cell-based, herpes simplex virus 1. Particulars: Human alphaherpesvirus 1, Vero 76. The protocol:
Vero 76 cells were maintained in MEM with Earle's salts, L-glutamine, 8% FBS (Hyclone, A-1111-L) and 100 units/mL Penicillin-100 μg/mL Streptomycin. For assay conditions, FBS was reduced to 2%. Cells are seeded into 96-well tissue culture plates at a density of 5×10^4 cells/well after being incubated for 45 min at 37° C. in the presence of HSV-1 or HSV-2 (MOI=0.001). Test compounds are added to the wells and the plates are incubated at 37° C. for 40–48 hours. Cell lysates are prepared as follows: media was removed and replaced with 150 μL/well 0.2 N NaOH with 1% Igepal CA 630 or NP-40. Plates were incubated up to 14 days at room temperature in a humidified chamber to prevent evaporation.
For the detection probe, a gel-purified, digoxigenin-labeled, […] PCR fragment of the HSV UL-15 sequence was utilized. PCR conditions included 0.5 μM primers, 180 μM dTTP, 20 μM dUTP-digoxigenin (Boehringer Mannheim 1558706), 200 μM each of dATP, dCTP, and dGTP, 1×PCR Buffer II (Perkin Elmer), 2.5 mM MgCl2, 0.025 units/μL of AmpliTaq Gold polymerase (Perkin Elmer), and 5 ng of gel-purified HSV DNA per 100 μL. Extension conditions were 10 min at 95° C., followed by 30 cycles of 95° C. for 1 min, 55° C. for 30 sec, and 72° C. for 2 min. The amplification was completed with a 10-min incubation at 72° C. Primers were selected to amplify a 728 bp probe spanning a section of the HSV1 UL 15 open reading frame (nucleotides 249–977). Single-stranded transcripts were purified with Promega M13 Wizard kits. The final product was mixed 1:1 with a mixture of 6 M GuSCN, 100 mM EDTA and 200 μg/mL herring sperm DNA and stored at 4° C.
The capture DNA plasmid (HSV UL13 region in pUC) was linearized by cutting with Xba I, denatured for 15 min at 95° C. and diluted immediately into Reacti-Bind DNA Coating Solution (Pierce, 17250, diluted 1:1 with TE buffer, pH 8) at 1 ng/μL 75 μL/well were added to Corning (#3922 or 9690) white 96-well plates and incubated at room temperature for at least 4 hrs before washing twice with 300 μL/well 0.2×SSC/0.05% Tween-20 (SSC/T buffer). The plates were then incubated overnight at room temperature with 150 μL/well 0.2 N NaOH, 1% IGEPAL and 10 μg/mL herring sperm DNA.
Twenty-seven (27) μL of cell lysate was combined with 45 μL of hybridization solution (final concentration:3M GuSCN, 50 mM EDTA, 100 μg/ml salmon sperm DNA, 5× Denhardt's solution, 0.25×APE, and 5 ng of the digoxigenin-labeled detection probe). APE is 1.5 M NH4-acetate, 0.15 M NH4H2 phosphate, and 5 mM EDTA adjusted to pH 6.0. Mineral oil (50 μL) was added to prevent evaporation. The hybridization plates were incubated at 95° C. for 10 minutes to denature the DNA, then incubated at 42° C. overnight. The wells were washed 6× with 300 μL/well SSC/T buffer then incubated with 75 μL/well anti-digoxigenin-HRP-conjugated antibody (Boehringer Mannheim 1207733, 1:5000 in TE) for 30 min at room temperature. The wells were washed 6× with 300 μL/well with PBS/0.05% Tween-20 before 75 μL/well SuperSignal LBA substrate (Pierce) was added. The plates were incubated at room temperature for 30 minutes and chemiluminescence was measured in a Wallac Victor reader.
The following results were obtained for HSV-1.
Turning to `[H]/N=C(/Nc1cc(Cl)cc2c(-c3ccnc(NC4CCCC4)n3)c(-c3ccc(F)cc3)nn12)NC1CCCC1` [Example 26, N-[5-Chloro-3-[2-(cyclopentylamino)pyrimidin-4-yl]-2-(4-fluorophenyl)pyrazolo[1,5-a]pyridin-7-yl]-N′-cyclopentylguanidine hydrochloride], the pIC50 is 6.59.

The same experiment, now with this note: Human alphaherpesvirus 1; HSV-1 (MOI=0.001) in Vero 76 cells, 40–48 hours incubation, HSV DNA hybridization chemiluminescence readout; read-out: IC50.
As to `COc1ccc(-c2nn3c(NC4CC4)cc(Cl)cc3c2-c2ccnc(NC3CCCC3)n2)cc1` [Example 30, N-{4-[5-Chloro-7-(cyclopropylamino)-2-(4-methoxyphenyl)pyrazolo[1,5-a]pyridin-3-yl]-2-pyrimidinyl}-N-cyclopentylamine], the pIC50 is 6.48.

With `Fc1ccc(-c2nn3c(NC4CCCC4)c(Br)cc(Br)c3c2-c2ccnc(NC3CCCC3)n2)cc1` [Example 42, 4,6-Dibromo-N-cyclopentyl-3-[2-(cyclopentylamino)pyrimidin-4-yl]-2-(4-fluorophenyl)pyrazolo[1,5-a]pyridin-7-amine], the pIC50 was 4.70.

With `Cc1cccc(-c2nn3c(NC4CC4)cc(Cl)cc3c2-c2ccnc(NC3CCCC3)n2)c1` [Example 20, 5-Chloro-3-[2-(cyclopentylamino)pyrimidin-4-yl]-N-cyclopropyl-2-(3-methylphenyl)pyrazolo[1,5-a]pyridin-7-amine], the pIC50 is 6.30.

Consider `Fc1ccc(-c2nn3c(NC4CCCC4)c(Br)cc(Br)c3c2-c2nc(NC3CCCC3)ncc2Br)cc1` [Example 43, 4,6-Dibromo-3-[5-bromo-2-(cyclopentylamino)pyrimidin-4-yl]-N-cyclopentyl-2-(4-fluorophenyl)pyrazolo[1,5-a]pyridin-7-amine], for which the pIC50 is under 4.40.

For `O=C(c1ccc2c(-c3ccnc(NC4CCCC4)n3)c(-c3ccc(F)cc3)nn2c1NC1CCCC1)N1CCCC1` [Example 5, N-Cyclopentyl-3-[2-(cyclopentylamino)-4-pyrimidinyl]-2-(4-fluorophenyl)-6-(1-pyrrolidinylcarbonyl)pyrazolo[1,5-a]pyridin-7-amine], the pIC50 was 5.39.

Regarding `Fc1ccc(-c2nn3c(NC4CC4)cc(Cl)cc3c2-c2ccnc(NC3CC3)n2)cc1` [Example 27, 5-Chloro-N-cyclopropyl-3-[2-(cyclopropylamino)pyrimidin-4-yl]-2-(4-fluorophenyl)pyrazolo[1,5-a]pyridin-7-amine], the pIC50 is 5.80.

Take `COc1ccc(-c2nn3c(Cl)cc(Cl)cc3c2-c2ccnc(NC3CCCC3)n2)cc1` [Example 17, N-Cyclopentyl-4-[5,7-dichloro-2-(4-methoxyphenyl)pyrazolo[1,5-a]pyridin-3-yl]-2-pyrimidinamine]: the pIC50 is 5.28.

With `CN1CCN(c2cc(Cl)cc3c(-c4ccnc(NC5CCCC5)n4)c(-c4ccc(F)cc4)nn23)CC1` [Example 23, 4-[5-Chloro-2-(4-fluorophenyl)-7-(4-methyl-1-piperazinyl)pyrazolo[1,5-a]pyridin-3-yl]-N-cyclopentyl-2-pyrimidinamine], the pIC50 was 6.30.

In the case of `O=C(NC(CO)CO)c1ccc2c(-c3ccnc(NC4CCCC4)n3)c(-c3ccc(F)cc3)nn2c1NC1CCCC1` [Example 10, 7-(Cyclopentylamino)-3-[2-(cyclopentylamino)-4-pyrimidinyl]-2-(4-fluorophenyl)-N-[2-hydroxy-1-(hydroxymethyl)ethyl]pyrazolo[1,5-a]pyridine-6-carboxamide], the pIC50 was 5.38.

As to `Fc1ccc(-c2nn3c(NC4CCCC4)c(C(F)(F)F)ccc3c2-c2ccnc(N3CCCC3)n2)cc1` [Example 1, N-Cyclopentyl-2-(4-fluorophenyl)-3-[2-(1-pyrrolidinyl)-4-pyrimidinyl)-6-(trifluoromethyl)pyrazolo[1,5-a]pyridin-7-amine], the pIC50 was 5.28.

Take `COc1ccc(-c2nn3c(NC4CCCC4)cc(Cl)cc3c2-c2ccnc(NC3CC3)n2)cc1` [Example 38, N-{4-[5-Chloro-7-(cyclopentylamino)-2-(4-methoxyphenyl)pyrazolo[1,5-a]pyridin-3-yl]-2-pyrimidinyl}-N-cyclopropylamine]: the pIC50 is 6.47.

Consider `O=C(NCCN1CCOCC1)c1ccc2c(-c3ccnc(NC4CCCC4)n3)c(-c3ccc(F)cc3)nn2c1NC1CCCC1` [Example 8, 7-(Cyclopentylamino)-3-[2-(cyclopentylamino)-4-pyrimidinyl]-2-(4-fluorophenyl)-N-[2-(4-morpholinyl)ethyl]pyrazolo[1,5-a]pyridine-6-carboxamide], for which the pIC50 is 5.30.

With `Oc1ccc(-c2nn3c(NC4CC4)cc(Cl)cc3c2-c2ccnc(NC3CCCC3)n2)cc1` [Example 31, 4-[5-Chloro-3-[2-(cyclopentylamino)-4-pyrimidinyl]-7-(cyclopropylamino)pyrazolo[1,5-a]pyridin-2-yl]phenol], the pIC50 is 5.82.

Take `Fc1ccc(-c2nn3c(NC4CCCC4)cc(Cl)cc3c2-c2ccnc(NC3CCCC3)n2)cc1` [Example 13, N-{4-[5-Chloro-7-(cyclopentylamino)-2-(4-fluorophenyl)pyrazolo[1,5-a]pyridin-3-yl]-2-pyrimidinyl}-N-cyclopentylamine]: the pIC50 was 6.77.

As for `Oc1ccc(-c2nn3c(NC4CCCC4)cc(Cl)cc3c2-c2ccnc(NC3CC3)n2)cc1` [Example 39, 4-{5-Chloro-7-(cyclopentylamino)-3-[2-(cyclopropylamino)-4-pyrimidinyl]pyrazolo[1,5-a]pyridin-2-yl}phenol], the pIC50 is 5.70.

Regarding `COc1ccc(-c2nn3c(NC4CCCC4)cc(Cl)cc3c2-c2ccnc(SC)n2)cc1` [Example 36, N-{5-Chloro-2-(4-methoxyphenyl)-3-[2-(methylsulfanyl)-4-pyrimidinyl]pyrazolo[1,5-a]pyridin-7-yl}-N-cyclopentylamine], the pIC50 is 4.66.

For `Clc1cc(NC2CC2)n2nc(-c3ccc(OCC4CC4)cc3)c(-c3ccnc(NC4CCCC4)n3)c2c1` [Example 32, 5-Chloro-3-[2-(cyclopentylamino)-4-pyrimidinyl]-N-cyclopropyl-2-[4-(cyclopropylmethoxy)phenyl]pyrazolo[1,5-a]pyridin-7-amine], the pIC50 was 6.10.

As to `CCOC(=O)c1ccc2c(-c3ccnc(NC4CCCC4)n3)c(-c3ccc(F)cc3)nn2c1NC1CCCC1` [Example 3, Ethyl 7-(cyclopentylamino)-3-[2-(cyclopentylamino)-4-pyrimidinyl]-2-(4-fluorophenyl)pyrazolo[1,5-a]pyridine-6-carboxylate], the pIC50 was 5.20.

On to `COc1ccc(-c2nn3c(NC4CCCC4)cc(Cl)cc3c2-c2ccnc(NC3CCCC3)n2)cc1` [Example 18, N-{4-[5-Chloro-7-(cyclopentylamino)-2-(4-methoxyphenyl)pyrazolo-[1,5-a]pyridin-3-yl]-2-pyrimidinyl}-N-cyclopentylamine], for which the pIC50 was 6.60.

As for `CC(C)Nc1cc(NC(C)C)n2nc(-c3ccc(F)cc3)c(-c3ccnc(NC4CCCC4)n3)c2c1` [Example 16, 3-[2-(Cyclopentylamino)-4-pyrimidinyl]-2-(4-fluorophenyl)-N^5,N^7-diisopropylpyrazolo[1,5-a]pyridine-5,7-diamine], the pIC50 is 6.26.

Turning to `COc1ccc(-c2nn3c(NC4CCCC4)cc(Cl)cc3c2-c2ccnc([S+](C)[O-])n2)cc1` (centres unmarked) [Example 37, N-{5-Chloro-2-(4-methoxyphenyl)-3-[2-(methylsulfinyl)-4-pyrimidinyl]pyrazolo[1,5-a]pyridin-7-yl}-N-cyclopentylamine], the pIC50 is 5.22.

With `COCCOc1cc(NC2CCCC2)n2nc(-c3ccc(F)cc3)c(-c3ccnc(NC4CCCC4)n3)c2c1` [Example 46, N-Cyclopentyl-3-[2-(cyclopentylamino)-4-pyrimidinyl]-2-(4-fluorophenyl)-5-(2-methoxyethoxy)pyrazolo[1,5-a]pyridin-7-amine], the pIC50 is 6.89.
